Measurements from US20050084839A1, “Method for selecting oocytes by using a response to LPA stimulation” (Hitachi, Ltd., priority 2003, published 2005).
“And” between values parts separate entries of the source, which are not always exact repeats. Equal entries are not always repeated.

Tested on: LPAR expressed endogenously in Xenopus laevis oocytes
Assay: Current response of oocytes to LPA stimulation (two-electrode voltage clamp)
Assay type: cell-based
Conditions: 1 nM LPA; for Response to LPA, Average: average of six cells, −60 mV; for Response to LPA (difference between current value before LPA stimulation and peak current value after): individual cells, membrane potential fixed to −60 mV
Text: First, an ovary is extracted from a female Xenopus laevis by a conventional method, and oocytes are isolated from the ovary by an enzymic treatment or the like. Oocytes not suitable for experiments are removed by a microscopic observation of their appearances such as size, shape, color and pattern. From the remaining group of oocytes, several cells, preferably 3 to 10 cells, more preferably 4 to 7 cells, and most preferably 6 cells are extracted at random. The membrane potential of the extracted oocytes is fixed to a constant voltage, for example, […] to −40 mV or +20 mV to +60 mV, preferably −60 mV by a known method such as two-electrode voltage clamp method or patch clamp method (See, e.g., Shin pacchikuranpu jikkengijutuhou, ed. Okada Yasunobu, Yoshiokashoten, Joron Ion Chaneru, pp. 1-14). By fixing the membrane potential, it is possible to measure the ionic current passing through channels or transporters of electrically resistant nature.
To the oocyte after fixing to a certain potential was added about 1 pM to 10 μM, preferably 100 pM to 100 nM, and most preferably 10 nM of LPA, followed by measurement of current response of the oocyte. An average current response is determined for a group of oocytes measured where the current response to LPA stimulation is the difference between the peak current value before LPA addition and the peak current value after LPA addition, providing the response of GPCR for a group of oocytes containing a brood of oocytes. A group of oocytes having a response of GPCR higher than a certain desirable value or within a certain desirable range are selected. The oocytes belonging to the group of oocytes selected in this way originate from a mother, and therefore, each oocyte has genetically nearly equal response of GPCR and may be considered excellent in response of GPCR.
Ovaries were extracted from mother bodies A, B, and C, and their follicle cells were removed by a conventional method. The oocytes after removal of follicles were selected based on their appearances that seemed suitable for experiments, and groups of oocytes were saved separately for each mother body (batches A, B, and C). From each batch, six oocytes were extracted at random, respectively.
The membrane potential of each cell was fixed to −60 mV by the two-electrode voltage clamp method. Each cell was stimulated by 1 nM LPA, and then the current response was measured. The difference between the current value before LPA stimulation and the peak current value after LPA stimulation was determined for each cell and shown in Table 1. There were differences in the responses to LPA among the batches.

Lysophosphatidic acid [LPA]
Response to LPA, Average (Batch A oocytes): 0.8 μA | Response to LPA (difference between current value before LPA stimulation and peak current value after) (Batch A oocytes): 1.1 μA and 1.5 μA and 0.6 μA (2×) and 0.3 μA and 0.8 μA | Response to LPA, Average (Batch B oocytes): 2.0 μA | Response to LPA (difference between current value before LPA stimulation and peak current value after) (Batch B oocytes): 2.5 μA and 1.8 μA and 2.6 μA and 1.1 μA and 2.3 μA and 1.4 μA | Response to LPA, Average (Batch C oocytes): 0.2 μA | Response to LPA (difference between current value before LPA stimulation and peak current value after) (Batch C oocytes): 0.1 μA (2×) and 0.3 μA and 0.4 μA and 0.0 μA and 0.2 μA
